Results reported in patent publication US9499811B2, “Ligation enhancement” (New England Biolabs, Inc., priority 2011, dated 2016).
Read-outs that look alike come from different tables or passages of the source.

Assays:
T4 DNA ligase [1] = target: T1, T4 DNA ligase (Enterobacteria phage T4, UniProt P00970); test: Cloning of a 500 bp amplicon made by Taq DNA polymerase into a T-tailed vector (ligation test system a); assay type: biochemical; parameters: purchased NEB (New England Biolabs), Ipswich, Mass. #M0202; settings: no addition = 1-fold, single-base overhangs
T1 sequence (P00970 1-487): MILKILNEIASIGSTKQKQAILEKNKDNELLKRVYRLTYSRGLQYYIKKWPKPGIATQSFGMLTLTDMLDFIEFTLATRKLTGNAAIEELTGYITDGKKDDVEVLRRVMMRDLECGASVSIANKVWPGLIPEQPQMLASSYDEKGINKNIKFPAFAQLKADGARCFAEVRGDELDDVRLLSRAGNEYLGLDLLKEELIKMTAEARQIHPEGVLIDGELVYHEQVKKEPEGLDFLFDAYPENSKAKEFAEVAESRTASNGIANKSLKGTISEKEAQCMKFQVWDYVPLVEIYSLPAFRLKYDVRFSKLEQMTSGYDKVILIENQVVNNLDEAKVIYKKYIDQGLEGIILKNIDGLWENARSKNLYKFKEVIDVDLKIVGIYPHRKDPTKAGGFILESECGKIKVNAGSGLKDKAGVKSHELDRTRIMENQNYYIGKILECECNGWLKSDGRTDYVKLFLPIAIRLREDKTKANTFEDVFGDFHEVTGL
Experimental: (§1) All were tested side-by-side using two ligation test systems which were: (a) cloning of a 500 bp amplicon made by Taq DNA polymerase into a T-tailed vector; and (b) recircularization of an AhdI-linearized plasmid. Both ligation test systems used DNA with single-base overhangs.
(§2) The reaction mixtures contained DNA at 50-100 ng and 1,2-PrD at different concentrations. 1 μl of regular concentration (NEB, Ipswich, Mass., #M0202; 400 units) or 1 μl of high concentration T4 DNA ligase (NEB, Ipswich, Mass., #M0202; 2000 units) was then added to a final volume of 21 μl in 1×T4 DNA Ligase Buffer (NEB, Ipwich, Mass., #B0202) or 1× Quick Ligase™ Buffer (NEB, Ipswich, Mass., #B2200).
(§3) A standard assay uses 100 ng DNA, 1 μl of T4 DNA ligase, 21 μl 1×T4 DNA ligase buffer and varying amounts of enhancer.
(§4) Ligation reactions were incubated for 10 min at room temperature (25° C.) unless otherwise stated, then placed on ice for 2 min. In some experiments the ligase was heat-killed by incubation at 65° C. for 20 min. The ligation reactions were analyzed by 1% agarose gel electrophoresis to identify DNA species and determine the efficiency of […].
(§5) A volume of 2 μl from each ligation reaction was incubated with 50 μl of chemically competent (NEB, Ipswich, Mass., #C2987I) or electrocompetent (NEB, Ipswich, Mass., #C2989K) DH5 alpha E. coli cells.
(§6) For chemically competent cell transformations, the cell-DNA mixture was incubated on ice for 30 min, heat-shocked at 42° C. for 30 sec, then returned to ice for 5 min. A volume of 950 μl SOC medium (2% vegetable peptone or Tryptone, 0.5% yeast extract, 10 mM NaCl, 2.5 mM KCl, 10 mM MgCl2, 10 mM MgSO4 and 20 mM glucose) was added to the cell-DNA mixture, followed by a one hr 37° C. outgrowth period with agitation. A volume of 25-50 μl of appropriately diluted cells in SOC was spread onto Rich Agar plates (composition per liter: 10 g soy peptone, 5 g yeast extract, 10 g NaCl, 1 g MgCl2-6H2O, 1 g dextrose, 15 grams agar) supplemented with 100 μg/ml ampicillin. Plates were inverted and incubated for 16 hrs at 37° C., followed by quantification of total colony numbers.

T4 DNA ligase [2] = target: T1, T4 DNA ligase; assay type: biochemical; parameters: purchased NEB (New England Biolabs), Ipswich, Mass. #M0202
Experimental: as §1, §2, §3, §4, §5, §6

ligase = settings: Xiao et al. 2007; nick junctions in double-stranded DNA; cited from earlier work
T4 DNA ligase [3] = target: T1, T4 DNA ligase; settings: Pheiffer et al. 1983; cited from earlier work
[4] = enhancer at 12%, no addition = 1-fold, single-base overhangs

Compound | Cloning Enhancement (T4 DNA ligase [1]; enhancer at 12%) | Recircularization Enhancement (T4 DNA ligase [2]; [4]) | Effect on efficiency of ligation (ligase) | also measured
OCCCO [1,3-PrD, 1,3-propanediol] | 7-fold | 9 fold |  | 
C[N+](C)(C)CC(=O)O [Betaine] |  |  |  | Cloning Enhancement (T4 DNA ligase [1]; enhancer at 1.3M): 12-fold; Recircularization Enhancement (T4 DNA ligase [2]; enhancer at 1.3M, no addition = 1-fold, single-base overhangs): 13-fold
C[S+](C)[O-] [DMSO, dimethyl sulfoxide] |  |  | inhibited the efficiency of the ligation reaction at nick junctions in double-stranded DNA | Cloning Enhancement (T4 DNA ligase [1]; enhancer at 6%): 12-fold; Recircularization Enhancement (T4 DNA ligase [2]; enhancer at 6%, no addition = 1-fold, single-base overhangs): 9-fold
CCO [Ethanol] | 25-fold |  |  | Recircularization Enhancement (T4 DNA ligase [2]): 9-fold
OCCO [Ethylene glycol] | 10-fold |  |  | Recircularization Enhancement (T4 DNA ligase [2]): 8-fold
OCC(O)CO [Glycerol] | 4-fold | 5-fold | inhibited the efficiency of the ligation reaction at nick junctions in double-stranded DNA | 
CC(C)O [Isopropanol] | 16-fold | 10-fold |  | 
NC=O [formamide, reference compound] |  |  | inhibited the efficiency of the ligation reaction at nick junctions in double-stranded DNA | 
PEG 200 |  |  |  | Effect on blunt-end ligation (T4 DNA ligase [3]): little effect on ligation
PEG 400 |  |  |  | Effect on blunt-end ligation (T4 DNA ligase [3]): little effect on ligation
